# Earlier results as cited in patent US20230255953A1, “USE OF ROLUPERIDONE IN PREVENTING RELAPSE IN SCHIZOPHRENIA PATIENTS” (Minerva Neurosciences, Inc., priority 2022, published 2023).
# Read-outs that look alike come from different tables or passages of the source.
# Legend:
# [1] = tested on: patients with schizophrenia; conditions: Durgam et al. 2016; cited from earlier work
# chronic schizophrenia = conditions: Arato et al. 2002 (ZEUS), cited from earlier work
SMILES,Relapse rate [1] [%],Relapse rate after one year (chronic schizophrenia; 40 mg/day) [%],Relapse rate after one year (chronic schizophrenia; 80 mg/day) [%],Relapse rate after one year (chronic schizophrenia; 160 mg/day) [%]
CN(C)C(=O)N[C@H]1CC[C@H](CCN2CCN(c3cccc(Cl)c3Cl)CC2)CC1 [cariprazine],24.8,–,–,–
O=C1Cc2cc(CCN3CCN(c4nsc5ccccc45)CC3)c(Cl)cc2N1 [ziprasidone],–,43,35,36
